Measurements as given in publication PMC6395927, “Rufomycin Targets ClpC1 Proteolysis in Mycobacterium tuberculosis and M. abscessus” (Antimicrobial Agents and Chemotherapy, 2019).
Converted amounts (≈) assume the structure as drawn. Where two headings read alike, the source gives them in different places. Numbered stars: 1 amine (or outer) side, 2 acyl side, 3 side chain; on linkers, the order of the positions; unused ones are H or OH. Square brackets hold non-standard residues; d marks the D form. Peptide text beside a SMILES is read from it. ξ: configuration not given here. Trp(1-(1,1-Me2-allyl)) = C=CC(C)(C)n1cc(C[C@H](N)C(=O)O)c2ccccc21; X4 = CC(C)(C1CO1)n1cc(C[C@H](N[*:1])C(=O)[*:2])c2ccccc21; Tyr(3-NO2) = N[C@@H](Cc1ccc(O)c([N+](=O)[O-])c1)C(=O)O; X3 = CC(CC(C(=O)[*:2])N(C)[*:1])C(=O)O; Gly(E-crotyl) = C/C=C/C[C@H](N)C(=O)O; NMeL = CN[C@@H](CC(C)C)C(=O)O; ξNMeL = CNC(CC(C)C)C(=O)O

Key:
[1] = system: Candida albicans (ATCC 10231); test: MIC against nonmycobacteria (OD570); type: cell-based; conditions: ATCC10231, C. albicans
Source text: Standard compounds used were ampicillin (AMP) and gentamicin (GEN). […] Amphotericin B (AmphB) and ketoconazole (KETO) were used as standard compounds.

[2] = system: M. smegmatis (ATCC 700084); test: microbe, parasite or virus in culture; type: cell-based; conditions: Mycolicibacterium smegmatis, ATCC700084; M. smegmatis; read-out: MIC
[3] = system: M. abscessus (ATCC 19977); test: microbe, parasite or virus in culture; type: cell-based, Mycobacterium abscessus; conditions: Mycobacteroides abscessus, ATCC19977, M. abscessus; read-out: MIC
[4] = system: M. chelonae (ATCC 35752); test: microbe, parasite or virus in culture; type: cell-based, Mycobacterium chelonae; conditions: Mycobacteroides chelonae, ATCC35752; M. chelonae; read-out: MIC
[5] = system: M. marinum (ATCC 927); test: microbe, parasite or virus in culture; type: cell-based; conditions: Mycobacterium marinum, ATCC927; M. marinum; read-out: MIC
[6] = system: M. bovis (ATCC 35734); test: microbe, parasite or virus in culture; type: cell-based; conditions: Mycobacterium tuberculosis variant bovis, ATCC35734
[7] = system: M. kansasii (ATCC 12478); test: microbe, parasite or virus in culture; type: cell-based; conditions: Mycobacterium kansasii, ATCC12478; M. kansasii; read-out: MIC
[8] = system: M. avium (ATCC 15769); test: microbe, parasite or virus in culture; type: cell-based; conditions: Mycobacterium avium, ATCC15769; M. avium; read-out: MIC
[9] = system: M. tuberculosis strain H37Rv (ATCC 27294); test: microbe, parasite or virus in culture; type: cell-based, Mycobacterium tuberculosis
[10] = system: M. tuberculosis 5 global clade representatives; test: microbe, parasite or virus in culture; type: cell-based; conditions: Mycobacterium tuberculosis, read-out: MICs
[11] = Mycobacterium tuberculosis, read-out: MIC against M. tuberculosis

## C[C@@H]1[C@H](O)[C@@H](C)/C=C/C=C/C=C/C=C/C=C/C=C/C=C/[C@H](O[C@@H]2O[C@H](C)[C@@H](O)[C@H](N)[C@@H]2O)C[C@@H]2O[C@](O)(C[C@@H](O)C[C@@H](O)[C@H](O)CC[C@@H](O)C[C@@H](O)CC(=O)O[C@H]1C)C[C@H](O)[C@H]2C(=O)O [AmphB, amphotericin B]
[1]
  MIC: 2.6 µM (≈ 2.4 µg/mL)

## CC(C)/N=c1\cc2n(-c3ccc(Cl)cc3)c3ccccc3nc-2cc1Nc1ccc(Cl)cc1 [CLO, clofazimine]
[2]
  MIC: 2.39 µM (≈ 1.13 µg/mL)
[3]
  MIC: 9.23 µM (≈ 4.37 µg/mL)
[4]
  MIC: 10 µM (≈ 4.73 µg/mL)
[5]
  MIC: 0.34 µM (≈ 0.161 µg/mL)
[6]
  MIC: < 0.2 µM
[7]
  MIC: < 0.2 µM
[8]
  MIC: < 0.2 µM

## C=CC(C)(C)n1cc(C[C@@H]2NC(=O)[C@H](C/C=C/C)NC(=O)[C@H](CC(C)C)N3CC(C)CC(C3=O)N(C)C(=O)[C@H](C)NC(=O)[C@H](Cc3ccc(O)c([N+](=O)[O-])c3)NC(=O)[C@H](CC(C)C)N(C)C2=O)c2ccccc21 (stereo partly shown) [III]
[9]; [11]
  MIC: 1 µM (≈ 1.01 µg/mL)

## C/C=C/C[C@@H]1NC(=O)[C@H](CC(C)C)N2C(=O)C(C[C@@H](C)[C@H]2O)N(C)C(=O)[C@H](C)NC(=O)[C@H](Cc2ccc(O)c([N+](=O)[O-])c2)NC(=O)[C@H](CC(C)C)N(C)C(=O)[C@H](Cc2cn(C(C)(C)C3CO3)c3ccccc23)NC1=O (stereo partly shown) [II]
[9]; [11]
  MIC: 0.05 µM (≈ 0.0521 µg/mL)

## NNC(=O)c1ccncc1 [INH, isoniazid]
[9]; Mycobacterium tuberculosis
  MIC: 0.23 µM (≈ 0.0315 µg/mL)
[10]
  MIC: 0.25 to 0.47 µM (≈ 0.0343 to 0.0645 µg/mL)
[2]
  MIC: 360 µM (≈ 49.4 µg/mL)
[3]
  MIC: > 8 µM
[4]
  MIC: > 8 µM
[5]
  MIC: > 8 µM
[6]
  MIC: 0.48 µM (≈ 0.0658 µg/mL)
[7]
  MIC: 3.84 µM (≈ 0.527 µg/mL)
[8]
  MIC: > 8 µM

## C/C=C/C[C@@H]1NC(=O)[C@H](CC(C)C)NC(=O)C(CC(C)C)N(C)C(=O)[C@H](C)NC(=O)[C@H](Cc2ccc(O)c([N+](=O)[O-])c2)NC(=O)[C@H](CC(C)C)NC(=O)[C@H](Cc2cn(C(C)(C)C3CO3)c3ccccc23)NC1=O (stereo partly shown) [IV] (cyclo(A[ξNMeL]L[Gly(E-crotyl)][X4]L[Tyr(3-NO2)]))
[9]; [11]
  MIC: 0.58 µM (≈ 0.588 µg/mL)

## CC(=O)N1CCN(c2ccc(OCC3COC(Cn4ccnc4)(c4ccc(Cl)cc4Cl)O3)cc2)CC1 (stereo not shown) [KETO, ketoconazole]
[1]
  MIC: 0.98 µM (≈ 0.521 µg/mL)

## CC(=O)NC[C@H]1CN(c2ccc(N3CCOCC3)c(F)c2)C(=O)O1 [LZD, linezolid]
[9]; Mycobacterium tuberculosis
  MIC: 1.8 µM (≈ 0.607 µg/mL)
[10]
  MIC: 0.41 to 1.6 µM (≈ 0.138 to 0.54 µg/mL)

## COc1c(N2C[C@@H]3CCCN[C@@H]3C2)c(F)cc2c(=O)c(C(=O)O)cn(C3CC3)c12 [MXF, moxifloxacin]
[9]; Mycobacterium tuberculosis
  MIC: 0.26 µM (≈ 0.104 µg/mL)

## O=[N+]([O-])c1cn2c(n1)OC[C@@H](OCc1ccc(OC(F)(F)F)cc1)C2 [PA824, pretomanid]
[9]; Mycobacterium tuberculosis
  MIC: 0.04 µM (≈ 0.0144 µg/mL)
[10]
  MIC: 0.03 to 0.1 µM (≈ 0.0108 to 0.0359 µg/mL)
[3]
  MIC: > 8 µM
[4]
  MIC: > 8 µM
[5]
  MIC: > 8 µM
[6]
  MIC: 0.1 µM (≈ 0.0359 µg/mL)
[7]
  MIC: 4.7 µM (≈ 1.69 µg/mL)
[8]
  MIC: > 8 µM

## [H]/N=C(/N)N[C@H]1[C@H](O)[C@@H](O)[C@H](O[C@@H]2O[C@@H](C)[C@](O)(C=O)[C@H]2O[C@@H]2O[C@@H](CO)[C@H](O)[C@@H](O)[C@@H]2NC)[C@@H](N/C(N)=N\[H])[C@@H]1O [STR, streptomycin]
[9]; Mycobacterium tuberculosis
  MIC: 0.15 µM (≈ 0.0872 µg/mL)

## C/C=C/C[C@@H]1NC(=O)[C@H](CC(C)C)NC(=O)C(CC(C)C(=O)O)N(C)C(=O)[C@H](C)NC(=O)[C@H](Cc2ccc(O)c([N+](=O)[O-])c2)NC(=O)[C@H](CC(C)C)N(C)C(=O)[C@H](Cc2cn(C(C)(C)C3CO3)c3ccccc23)NC1=O (stereo partly shown) [VII] (cyclo(A[X3]L[Gly(E-crotyl)][X4][NMeL][Tyr(3-NO2)]))
[9]; [11]
  MIC: 1 µM (≈ 1.06 µg/mL)

## C=CC(C)(C)n1cc(C[C@@H]2NC(=O)[C@H](C/C=C/C)NC(=O)[C@H](CC(C)C)NC(=O)C(CC(C)C)N(C)C(=O)[C@H](C)NC(=O)[C@H](Cc3ccc(O)cc3)NC(=O)[C@H](CC(C)C)N(C)C2=O)c2ccccc21 (stereo partly shown) [VI] (cyclo(A[ξNMeL]L[Gly(E-crotyl)][Trp(1-(1,1-Me2-allyl))][NMeL]Y))
[9]; [11]
  MIC: > 50 µM

## C/C=C/C[C@@H]1NC(=O)[C@H](CC(C)C)NC(=O)C(CC(C)C)N(C)C(=O)[C@H](C)NC(=O)[C@H](Cc2ccc(O)c([N+](=O)[O-])c2)NC(=O)[C@H](CC(C)C)N(C)C(=O)[C@H](Cc2cn(C(C)(C)C3CO3)c3ccccc23)NC1=O (stereo partly shown) [V] (cyclo(A[ξNMeL]L[Gly(E-crotyl)][X4][NMeL][Tyr(3-NO2)]))
[9]; [11]
  MIC: 0.07 µM (≈ 0.072 µg/mL)

## capreomycin
[9]
  MIC: 0.39 µM
